“Also recorded” adds a separate entry of the source. Non-standard residues stand in square brackets, D forms with d. Residues, ends and D or L forms follow the SMILES beside them. *: point of attachment. 2Nal = N[C@@H](Cc1ccc2ccccc2c1)C(=O)O; Cit = NC(=O)NCCC[C@H](N)C(=O)O; Pip = O=C(O)[C@@H]1CCCCN1; ClAc = O=C(CCl)*
Assays:
[1] = molecular target: Pin1 Cys 113 (Homo sapiens, UniProt Q13526); assay: Covalent labeling (intact MS); format: binding; settings: for Covalent? (In tact MS), % labeling: purified Pin1 with 5 μM inhibitor, 0-3 hr
Protocol: 5 μg of purified Pin1 protein in 50 μL of 20 mM HEPES pH 7.5 and 75 mM NaCl was incubated with 5 μM of respective Pin1 inhibitors for 0-3 hr. A Shimadzu XR HPLC was used to inject the entire sample onto a self-packed reverse-phase column (1/32 in outer diameter×500 μm inner diameter, 5 cm of POROS 50R2 resin). After desalting, protein was eluted with an HPLC gradient (0%-100% B in 4 min, A=0.2 M acetic acid in water, B=0.2 M acetic acid in acetonitrile, flow rate=10 μl/min) into a LTQ XL mass spectrometer (Thermo Fisher Scientific, San Jose, Calif., USA). LTQ XL MS spectra were acquired in centroid mode using the electron multipliers for ion detection. Mass spectra were deconvoluted using MagTran1.03b2 software (Zhang and Marshall, J. Am. Soc. Mass Spectrom. 9:225-233 (1998)).

[2] = molecular target: T1, Pin1 (Homo sapiens, UniProt Q13526); assay: X-ray crystallography; parameters: A construct of full-length human Pin1 in a pET28 vector; made in house; host or cells: E. coli BL21 (DE3)
Protocol: A construct of full-length human Pin1 in a pET28 vector was overexpressed in E. coli BL21 (DE3) in LB medium in the presence of […] of kanamycin. Cells were grown at 37° C. to an OD of 0.8, cooled to 17° C., induced with 500 μM isopropyl-1-thio-D-galactopyranoside, incubated overnight at 17° C., collected by centrifugation, and stored at −80° C. Cell pellets were sonicated in buffer A (50 mM hepes 7.5, 300 mM NaCl, 10% glycerol, 10 mM Imidazole, and 3 mM 2-mercaptoethanol (BME) and the resulting lysate was centrifuged at 30,000×g for 40 min. Ni-NTA beads (Qiagen) were mixed with lysate supernatant for 30 min and washed with buffer A. Beads were transferred to an FPLC-compatible column and the bound protein was washed with 15% buffer B (50 mM hepes 7.5, 300 mM NaCl, 10% glycerol, 300 mM imidazole, and 3 mM BME) and eluted with 100% buffer B. Thrombin was added to the eluted protein and incubated at 4° C. overnight. The sample was concentrated and passed through a Superdex® 200 10/300 column (GE healthcare) in a buffer containing 20 mM hepes 7.5, 150 mMNaCl, 5% glycerol, 3 mM DTT, and 1 mM tris(2-carboxyethyl)phosphine (TCEP). Fractions were pooled, concentrated to approximately 37 mg/ml and frozen at −80° C.
Apo protein at a final concentration of 1 mM was crystallized by sitting-drop (200 nL+200 nL) vapor diffusion at 20° C. in the following crystallization buffer: 3 M (NH4)2SO4, 100 mM BisTris-pH 7.0, 1% PEG400, and 1 mM DTT. A volume of 200 nL of 1 mM compound 2b-6 was added directly to crystals for soaking at 20° C. for 16 hrs. Crystals were transferred briefly into crystallization buffer containing 25% glycerol prior to flash-freezing in liquid nitrogen.
Diffraction data from complex crystals were collected at beamline 24ID-E of the NE-CAT at the Advanced Photon Source (Argonne National Laboratory). Data sets were integrated and scaled using XDS (Kabsch, Acta Crystallogr. D Biol. Crystallogr. D66: 133-144 (2010)). […]

[3] = molecular target: Pin1 (GST-Pin1) (Homo sapiens, UniProt Q13526); assay: Chymotrypsin-coupled PPIase assay, inhibition of isomerase activity; format: biochemical; settings: 12 hours pre-incubation at 4° C.; Cheng-Prusoff equation; read-out: Ki, μM (PPlase Assay)
Protocol: Inhibition of Pin1 isomerase activity was determined using the chymotrypsin-coupled PPIase assay, using GST-Pin1 and Suc-Ala-pSer-Pro-Phe-pNA peptide substrate ([…]), as described previously (Yaffe et al., Science 275:1957-1960 (1997)). GST-Pin1 was pre-incubated with the indicated concentrations of compound for 12 hours at 4° C. in buffer containing 35 mM HEPES (pH 7.8), 0.2 mM DTT, and 0.1 mg/mL bovine serum albumin (BSA). Immediately before the assay was started, chymotrypsin (final concentration 6 mg/mL), followed by the peptide substrate (Suc-Ala-pSer-Pro-Phe-pNA peptide substrate, final concentration […]) was added. The Ki value obtained from the PPIase assay was derived from the Cheng-Prusoff equation, Ki=IC50/(1+S/Km), where Km is the Michaelis constant for the used substrate, S is the initial concentration of the substrate in the assay, and IC50 is the […] inhibitory concentration of the inhibitor.

[4] = molecular target: T1, Pin1; assay: Lysate target engagement (pull down with biotinylated probes; competition assay); format: binding; parameters: endogenous in cells; host or cells: MDA-MB-231; settings: for Lysate Target Engagement?: TNBC-MDA-MB-231 lysate, biotin/dtb probes: pull down, others: competition, concentration under E5
Protocol: (§1) TNBC-MDA-MB-231 cells were lysed in lysis buffer (50 mM Hepes pH 7.5, 150 mM NaCl, 1 mM ethylenediaminetetraacetic acid (EDTA), 10% v/v glycerol, 0.5% v/v NP-40, protease inhibitors (Roche)). After clarifying by centrifugation (14,000 rpm for 15 min at 4° C.), lysates were incubated with the indicated concentrations of candidate compound for 1 hour at 4° C. (500 μg of protein per sample, as determined by BCA). Lysates were then incubated with streptavidin agarose resin (30 μL of 1:1 beads: lysis buffer slurry) (Thermo Scientific™, cat. #20349) for 2 hours at 4° C. Beads were washed 4 times with 500 μL of washing buffer (50 mM Hepes, pH 7.5, 10 mM NaCl, 1 mM EDTA, 10% glycerol), then pelleted by centrifugation and dried. The beads were then boiled at 95° C. for 5 minutes in 30 μL of 2× LDS+10% β-mercaptoethanol. Lysates were probed for specified proteins by western blotting using the Bolt system (Life Technologies™).
as §1, with “mM EDTA,” for “mM ethylenediaminetetraacetic acid (EDTA),”, “by centrifugation,” for “by centrifugation (14,000 rpm for 15 min at 4° C.),”, “were pre-incubated” for “were incubated”, “of” for “of candidate”, “compound 18 overnight” for “compound for 1 hour”, “BCA). The lysates were then incubated with 1 μM of compound 2c (desthiobiotin probe) for 1 hour at 4° C.” for “BCA).”

T1 sequence (Q13526 whole entry): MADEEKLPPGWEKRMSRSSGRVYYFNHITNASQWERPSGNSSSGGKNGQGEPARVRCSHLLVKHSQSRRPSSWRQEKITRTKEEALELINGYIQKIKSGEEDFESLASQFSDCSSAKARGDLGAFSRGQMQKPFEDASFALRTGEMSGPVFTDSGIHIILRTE
Pin1 Cys 113, sequence (Q13526 whole entry): as above
Pin1 (GST-Pin1), sequence (Q13526 whole entry): as above

Row | Lysate Target Engagement? concentration stated for the engagement or pull down ([4]; read with the E4 line of the same compound (complete, partial, probe pull down)) | Structure (SMILES) | Covalent? (In tact MS), % labeling [1] | X-Ray Crystal Structure? [2] | Ki [3] [µM] | Pin1 covalent labeling time course (FIG. 3A) ([1]; over the course of 60 minutes) | Lysate Target Engagement? [4] | binding mode in x-ray co-crystal structure (FIG. 4A) ([2]; 1.8 A resolution, crystal soaking)
1 |  | NC(=O)CC[C@H](NC(=O)[C@H](Cc1ccc2ccccc2c1)NC(=O)[C@@H]1CCCCN1C(=O)[C@H](CCC(=O)O)NC(=O)CCl)C(N)=O [Compound 2b-3, (S)-4-(2-Chloroacetamido)-5-((S)-2-(((S)-1-(((S)-1,5-diamino-1,5-dioxopentan-2-yl)amino)-3-(naphthalen-2-yl)-1-oxopropan-2-yl)carbamoyl)piperidin-1-yl)-5-oxopentanoic acid] (ClAc-E[Pip][2Nal]Q-NH2) | Yes (81% | Yes |  |  |  | 
2 |  | N=C(N)NCCC[C@H](NC(=O)[C@H](Cc1ccc2ccccc2c1)NC(=O)[C@@H]1CCCCN1C(=O)[C@H](CCC(=O)O)NC(=O)CCl)C(N)=O [Compound 2b-6, (S)-5-((S)-2-(((S)-1-(((S)-1-Amino-5-guanidino-1-oxopentan-2-yl)amino)-3-(naphthalen-2-yl)-1-oxopropan-2-yl)carbamoyl)piperidin-1-yl)-4-(2-chloroacetamido)-5-oxopentanoic acid] (ClAc-E[Pip][2Nal]R-NH2) | Yes (100% | Yes | 0.04 | rapidly labeled Pin1 Cysl 13 | No | covalently bound to Pin1; also recorded: covalently bound to Cys113 in the PPIase active site
3 | at 10 μM | NC(=O)NCCC[C@H](NC(=O)[C@H](Cc1ccc2ccccc2c1)NC(=O)[C@@H]1CCCCN1C(=O)[C@H](CCC(=O)O)NC(=O)CCl)C(N)=O [Compound 2b-13, (S)-5-((S)-2-(((S)-1-(((S)-1-Amino-1-oxo-5-ureidopentan-2-yl)amino)-3-(naphthalen-2-yl)-1-oxopropan-2-yl)carbamoyl)piperidin-1-yl)-4-(2-chloroacetamido)-5-oxopentanoic acid] (ClAc-E[Pip][2Nal][Cit]-NH2) |  |  | 0.021 |  | Yes-Complete | 

From patent US20210238225A1, “PEPTIDOMIMETIC INHIBITORS OF THE PEPTIDYL-PROLYL CIS/TRANS ISOMERASE (PIN1)” (DANA-FARBER CANCER INSTITUTE, INC., priority 2018, published 2021)
